The target in this experiment is T1, Caspase7 (Homo sapiens, UniProt P55210).
T1 construct: each full-length Caspase construct was expressed (for Caspases-1, 2, 3, 4, 5, 6, 7, and 9) at high levels; expressed in transfected cells; host or cells: Saccharomyces cerevisiae (EGY48)
T1 sequence (P55210 1-303): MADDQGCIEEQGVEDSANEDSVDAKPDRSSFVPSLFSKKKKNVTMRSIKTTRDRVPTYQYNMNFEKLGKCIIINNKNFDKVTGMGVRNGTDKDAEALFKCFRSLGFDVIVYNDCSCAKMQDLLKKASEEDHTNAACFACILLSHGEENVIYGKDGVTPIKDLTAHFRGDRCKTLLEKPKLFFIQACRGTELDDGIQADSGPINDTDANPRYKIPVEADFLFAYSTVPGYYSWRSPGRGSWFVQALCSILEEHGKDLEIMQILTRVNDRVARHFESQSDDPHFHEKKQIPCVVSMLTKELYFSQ
As to the kind of experiment: yeast 384 well β-galactosidase reporter assay, Caspase7. Type of experiment: cell-based. Particulars: Caspase7 in yeast, 384 well β-galactosidase activity assay. From the text:
When converting the yeast-based protease reporter system to HTS assay, conditions from agar plates to liquid medium in microtiter wells must be revised. This revision comprises, utilizing the measured β-galactosidase produced by yeast carrying the Caspase-cleavable reporter proteins, and assaying the colorimetric product (OD620nm) derived from X-gal substrate in 384 well plates, as a measure of the lacZ reporter gene activity. We compared β-galactosidase activity produced in the presence or absence of the broad-spectrum caspase inhibitory compound, zVAD-fmk ([…]-Valinyl-Alaninyl-Aspartyl-fluoromethylketone). […] Note that it was determined that it is not advisible to employ glucose in yeast media because it represses the GAL1 promoter used in some plasmids. […]
Yeast expressing various Caspases alone (at high levels) or in combination with upstream activators (at low levels) and cleavable substrates containing appropriate tetrapeptides reorganized by these proteases were used in 384 well β-galactosidase activity assays to assess inhibition by zVAD-fmk. The compound was titrated into assays at various concentrations and percentage inhibition was determined.
Assays were performed in a total volume of […] in triplicate. […] Absorbance at 620 nm was measured 2-3 days after culture at 30° C.
For orientation: In a reporter assay the amount or activity of a reporter protein is the signal.

Take “benzoyl-Valinyl-Alaninyl-Aspartyl-fluoromethylketone [zVAD-fmk]”: the IC50 (usually the concentration needed to halve the response being measured) was determined as 4.11 µM.

The values above are taken from patent US20100028892A1, “YEAST BASED EXPRESSION OF PROTEASES AND METHODS OF USE” (Burnham Institute for Medical Research, priority 2008, published 2010).
